From patent publication US20130245064A1, “NOVEL NEUROTRYPSIN INHIBITORS” (priority 2010, published 2013)
Like-named read-outs stand apart in the source and are kept apart here.

How the values were obtained:
uPA = biological target: T1, uPA (Homo sapiens, UniProt P00749); assay: Determination of IC50 for various proteases: uPA; assay type: biochemical; details: uPA 40 nM, substrate S-2288 0.5 mM; Mean ± SD
T1 construct: purchased American diagnostic
Method: (§1) A 6 mM solution of the test compound in DMSO was prepared. In a V-bottom micro plate the 6 mM compound solution was diluted 6 times in DMSO to obtain a concentration row with the following concentrations: 6 mM, 1.8 mM, 540 μM, 162 μM, 48.8 μM, 14.4 μM, and 4 μM. From this DMSO master plate 1:20 dilutions in 10 mM MOPS pH 8.3 were prepared to obtain solutions of 300, 90, 27, 8.1, 2.44, 0.72 and 0.22 μM in MOPS buffer and 5% DMSO.
(§2) 100 μl of this solution were pipetted into a flat bottom 96 well microplate and placed into a Tecan infinite 200 plate reader. Before measurement, 50 μl of protease solution and, subsequently 50 μl substrate solution were added by the machine. The liberation of free para nitroanilide was detected at 405 nm. The protease solution was freshly prepared by diluting to the desired concentration from a stock solution in 60 mM MOPS; 600 mM NaCl; 20 mM CaCl2; 10% DMSO; 0.4% PEG 6000 pH 8.3. The substrate solution was prepared by dissolving the solid substrate in an adequate amount of water to get the desired concentrations. The used protease and substrate solutions are given below:
(§3) All enzymes except trypsin were from human origin (American diagnostic). Trypsin was hog trypsin (Sigma Aldrich). Substrates were purchased from Chromogenix. […]

human neurotrypsin = biological target: T2, human neurotrypsin (Homo sapiens, UniProt P56730); assay: Determination of IC50 for human neurotrypsin; assay type: biochemical
T2 sequence (P56730 21-875): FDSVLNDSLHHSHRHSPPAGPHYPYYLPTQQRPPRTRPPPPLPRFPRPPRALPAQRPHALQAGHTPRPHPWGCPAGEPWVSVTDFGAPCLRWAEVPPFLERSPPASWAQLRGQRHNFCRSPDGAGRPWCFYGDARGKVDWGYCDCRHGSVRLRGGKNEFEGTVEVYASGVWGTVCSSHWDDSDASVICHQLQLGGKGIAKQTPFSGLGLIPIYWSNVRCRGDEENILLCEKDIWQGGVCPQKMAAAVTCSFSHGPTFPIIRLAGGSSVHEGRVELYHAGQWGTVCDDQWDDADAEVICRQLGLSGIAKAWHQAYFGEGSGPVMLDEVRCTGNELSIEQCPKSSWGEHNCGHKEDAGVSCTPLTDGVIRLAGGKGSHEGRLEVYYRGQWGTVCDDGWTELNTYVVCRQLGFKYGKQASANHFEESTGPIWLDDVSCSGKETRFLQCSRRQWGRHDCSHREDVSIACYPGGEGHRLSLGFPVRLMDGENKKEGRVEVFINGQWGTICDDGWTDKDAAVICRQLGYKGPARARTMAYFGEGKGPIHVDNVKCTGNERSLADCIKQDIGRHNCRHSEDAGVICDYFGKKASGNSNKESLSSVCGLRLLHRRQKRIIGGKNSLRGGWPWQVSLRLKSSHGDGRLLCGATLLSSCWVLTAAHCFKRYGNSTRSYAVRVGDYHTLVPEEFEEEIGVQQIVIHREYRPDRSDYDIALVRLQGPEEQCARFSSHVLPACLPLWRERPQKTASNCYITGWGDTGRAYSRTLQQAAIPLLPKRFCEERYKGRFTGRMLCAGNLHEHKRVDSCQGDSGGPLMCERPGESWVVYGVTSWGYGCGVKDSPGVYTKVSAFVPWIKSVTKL
Method: Determination of IC50 for Human Neurotrypsin
Assessment of the potency of compounds of examples 1-14 in inhibiting the enzymatic activity of human neurotrypsin was performed according to the method described in patent application […]

Thrombin = biological target: T3, Thrombin (Homo sapiens, UniProt P00734); assay: Determination of IC50 for various proteases: thrombin; assay type: biochemical; details: thrombin 6 nM, substrate S-2266 0.5 mM; Mean ± SD
T3 construct: purchased American diagnostic
Method: as §1, §2, §3

Plasmin = biological target: T4, Plasmin (Homo sapiens, UniProt P00747); assay: Determination of IC50 for various proteases: plasmin; assay type: biochemical; details: plasmin 8 nM, substrate S-2288 0.5 mM; Mean ± SD
T4 construct: purchased American diagnostic
T4 sequence (P00747 581-810 limits assumed): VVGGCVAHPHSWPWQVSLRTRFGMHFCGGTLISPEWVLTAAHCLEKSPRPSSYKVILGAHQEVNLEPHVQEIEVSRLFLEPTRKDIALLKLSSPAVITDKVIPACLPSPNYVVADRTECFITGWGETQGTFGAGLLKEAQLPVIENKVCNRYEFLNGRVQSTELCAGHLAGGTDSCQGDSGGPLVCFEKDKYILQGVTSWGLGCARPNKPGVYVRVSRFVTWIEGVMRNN
T4 sequence (P00747 97-580 partner limits assumed): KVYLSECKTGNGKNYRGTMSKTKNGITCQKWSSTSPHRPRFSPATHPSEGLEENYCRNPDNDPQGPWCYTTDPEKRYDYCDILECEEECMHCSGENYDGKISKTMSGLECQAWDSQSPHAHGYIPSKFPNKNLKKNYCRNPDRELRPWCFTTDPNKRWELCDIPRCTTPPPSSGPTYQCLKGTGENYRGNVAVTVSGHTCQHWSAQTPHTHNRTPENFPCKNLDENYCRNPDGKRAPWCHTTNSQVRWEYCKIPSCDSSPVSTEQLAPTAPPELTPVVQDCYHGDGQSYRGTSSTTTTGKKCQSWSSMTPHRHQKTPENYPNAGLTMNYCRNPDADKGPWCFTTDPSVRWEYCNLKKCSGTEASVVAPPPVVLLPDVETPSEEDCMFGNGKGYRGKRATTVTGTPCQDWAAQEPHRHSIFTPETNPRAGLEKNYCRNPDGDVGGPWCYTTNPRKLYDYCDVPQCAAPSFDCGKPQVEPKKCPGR
Method: as §1, §2, §3

[1] = Effect of compound on body weight in mice; assay type: in vivo, C57/BL6 mice; details: 25 mg/kg, three subcutaneous injections
Method: Adult (P50) C57/BL6 mice from Charles River were used for the experiments. All animal experiments are performed in accordance with international guidelines for proper conduct of animal experiment under jurisdiction of the Swiss law (Permit number ZH-18/2008). For every mouse in the experiment the well-being during the interventions is documented in a score sheet.
The mice are housed under optimal hygienic conditions (OHB) with controlled air-conditioning and lighting (temperature: 20-24° C., humidity: 55-65%, day/night cycle: 12 h/12 h, lights on 7 a.m.). Individually ventilated cages of type II, L (530 cm^2 floor space) with standard litter are used. A maximum of 6 mice is kept in each cage. Mice are fed with standard rodent chow (Extrudat, KLIBA NAFAG) ad libitum and have free access to drinking water. Animal colony is managed and maintained at BioSupport, Schlieren.
Three adult mice were treated with 2.5 ml/kg of a 10 mg/ml solution of the compound of Example 1 in 100% DMSO. This corresponds to a dose of 25 mg/kg active ingredient. As vehicle control, 3 mice were treated with 2.5 ml/kg of 100% DMSO. Each mouse received three subcutaneous injections. Between dose 1 and dose 2 there were 8 h, between dose 2 and dose 3 16 h. 5 h after the last injection the mice were euthanatized with CO2. […]

O=C(Nc1ccc(C(=O)Nc2ccc(Cl)cc2)c(O)c1)c1ccc(-c2nc3cc(Cl)c(Cl)cc3[nH]2)cc1 [Example 1, N-(4-Chlorophenyl)-4-(4-(5,6-dichloro-1H-benzo[d]imidazol-2-yl)benzamido)-2-hydroxybenzamide]
IC50 (uPA): > 150 µM
melting point: > 220 °C
IC50 (human neurotrypsin; Mean ± SD, read-out: IC50 Neurotrypsin): 470 ± 150 nM
IC50 (human neurotrypsin; table of all 14 examples, read-out: Neurotrypsin IC50): 400 nM
IC50 (Thrombin): > 150 µM
IC50 (Plasmin): > 150 µM
Weight loss compared to the vehicle control [1]: did not produce any increase in weight loss
